This note sets out measurements from article PMC8443696, “Structural determinants and regulation of spontaneous activity in GABAA receptors” (Nature Communications, 2021).

“And” between values parts separate entries of the source, which are not always exact repeats. Equal values may be shown once. Read-outs that look alike come from different tables or passages of the source.

Experiment [1] concerns T1, α4β3 receptors.
T1 construct: expressed in transfected cells; host or cells: HEK 293
In words: Agonist-evoked whole-cell currents and their modulation by Zn2+ / DS2 in HEK cells. Type of experiment: cell-based, mouse. The arrangement: GABA current, Supp. Fig. 2b / GABA + DS2 current, Supp. Fig. 2b / GABA current, Supp. Fig. 2a: unit not given here. To be noted: GABA with DS2, individual cells. The text has this: (§1) All components were obtained from Life Technologies.
(§2) Currents were acquired with Clampex ver.
(§3) Cells were voltage clamped at −40 mV.

In experiment [2] the target is T2, α4β3δ receptors (UniProt P18506+P63080+Q9D6F4).
T2 construct: expressed in transfected cells; host or cells: HEK 293
The description is as above. Type of experiment: cell-based, mouse.
From the text: as §1, §2, §3

Experiment [3] relates to α4β3δ receptors. Format: cell-based, mouse. The arrangement: spontaneous activity, Supp. Fig. 3e: unit not given here. Particulars: for Ispont during staurosporine application: 200 nM staurosporine.
From the text: as §1, §2, §3
(§4) For assessment of the efficacy of allosteric modulators on spontaneous activity, compounds were briefly applied (3–5 s) to achieve steady-state currents (IMod). […] The IMod was summed with IPTX (or subtracted for inhibitory modulators) and the Ispont calculated, as described by Eq. (2):2 Ispont(%)=[(IPTX+IMod)/(IPTX+IMax)]×100……………………………………

Experiment [4] deals with cultured hippocampal neurons. The experiment can be described thus: Voltage clamp of spontaneous/tonic GABAAR currents in transfected cultured hippocampal neurons. Type of experiment: cell-based, rat. Particulars: for spontaneous/tonic current, Supp. Fig. 4e: concanamycin treated (vs control), individual cells; for Effect on holding current: gabazine 1 μM. The procedure:
This media was replaced 2 h later with neurobasal-A media supplemented with 1% v/v B-27, 50 units/ml penicillin-G, 50 µg/ml streptomycin, 0.5% v/v glutamax and 35 mM glucose. These cells were transfected 6–8 days later using either the calcium phosphate protocol described above, or Effectene with a protocol as described by the manufacturer (Qiagen) using a total 0.8 μg of cDNA per coverslip. […] Neurons were used for electrophysiological recording or confocal imaging 5–9 days later.
as §2
(§5) Recordings from hippocampal cultures used ~3–5 MΩ electrodes filled with an internal solution consisting of (mM): 140 CsCl, 2 NaCl, 10 HEPES, 5 EGTA, 2 MgCl2, 0.5 CaCl2, 2 Na2ATP, 0.5 Na2GTP, 2 QX-314, pH 7.3. Osmolarity was 300 ± 20 mOsm/L. Cells were perfused in the same Kreb’s solution described above, except for the addition of 2 mM kynurenic acid. Cells were voltage clamped at −60 mV. For current clamp, cells were recorded using an internal electrode solution consisting of (mM): 137 potassium gluconate, 3 KCl, 10 HEPES, 5 EGTA, 0.5 CaCl2, 2 MgCl2, 2 Na2ATP and 0.5 Na2GTP, pH 7.3. Osmolarity was 300 ± 20 mOsm/L. The external solution was as described for voltage-clamp experiments and the calculated junction potential was ~15 mV. Current was injected to hold cells at −70 mV if required. For slice recordings, slices were perfused in the aCSF described above, and the internal solution was the same as that used for cultured neuronal voltage-clamp recordings.

Experiment [5] deals with T2, α4β3δ receptors. Format: cell-based, mouse. To be noted: cells expressing α4, β3 and δ; gabazine 1 µM. On the set-up: spontaneous activity, Supp. Fig. 3e: unit not given here.
From the text: as §1, §2, §3, §4

Experiment [6] relates to dentate gyrus granule cells (DGGCs). In words: Tonic current in acute hippocampal brain slices.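 For tonic current change with +PTX, Fig. 10a: Holding current density change on antagonist application.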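 For tonic current change with Gabazine, Fig. 10a: Holding current density change on antagonist application.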 To be noted: for Change in holding current: DGGCs. Format: cell-based, rat.
From the text: (§6) Adolescent male rats (P21–P28) were anaesthetised by inhalation with 5% isoflurane before dispatch and isolation of the brain in accordance with the United Kingdom Animals (Scientific Procedures) Act 1986. The brain was immersed in an ice-cold slicing solution containing (mM): 85 NaCl, 2.5 KCl, 1.25 NaH2PO4, 26 NaHCO3, 75 sucrose, 1 CaCl2, 4 MgCl2, 25 glucose and 2 kynurenic acid, (pH 7.4 when bubbled with 95% O2/5% CO2). Horizontal (hippocampal) and coronal (thalamic) sections (all 350 µm thick) were cut using a Leica VT1200S vibratome before transfer to a holding chamber at 37 °C. The solution was slowly exchanged over 1 h with aCSF containing (mM): 125 NaCl, 2.5 KCl, 1.25 NaH2PO4, 26 NaHCO3, 2 CaCl2, 1 MgCl2, 25 glucose and 2 kynurenic acid (pH 7.4 when bubbled with 95% O2/5% CO2) before maintaining the slices at room temperature prior to recording.
as §2, §5

For experiment [7], the system named is dorsal lateral geniculate nucleus (dLGN) thalamic relay neurons. The experiment can be described thus: Tonic current in acute thalamic brain slices.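 For tonic current change with +PTX, Fig. 10b: Holding current density change on antagonist application.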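 For tonic current change with Gabazine, Fig. 10b: Holding current density change on antagonist application.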 Format: cell-based, rat.
From the text: as §6, §2, §5

In experiment [8] the test system is β3 homomeric receptors.
Experimental: HEK 293 cells were maintained in Dulbecco’s modified Eagle’s medium supplemented with 10% v/v heat-inactivated fetal calf serum, 100 units/ml penicillin-G and 100 µg/ml streptomycin and incubated at 37 °C in humidified 95% air/5% CO2. […] Cells were maintained within a passage range of P12–35. Dissociated HEK cells were plated onto 22 mm glass coverslips (VWR) coated in poly-L-lysine (Sigma). Cells were transfected >1 h later using a calcium phosphate protocol whereby a transfection solution was prepared consisting of 20 μl of 340 mM CaCl2, 24 μl of 2× HBS (50 mM HEPES, 280 mM NaCl, 2.8 mM Na2HPO4) and 4 μg cDNA per coverslip. […] Cells were recorded from 24–48 h later.
For all electrophysiological experiments, cells were visualised using a Nikon Eclipse E600FN microscope. Whole-cell currents were recorded using an Axopatch 200B amplifier and digitised using a Digidata 1322 A (Axon Instruments). […]
HEK cells were recorded from using borosilicate glass electrodes with resistances ~3–5 MΩ when filled with an internal solution containing (mM): 1 MgCl2, 140 KCl, 11 EGTA, 10 HEPES, 1 CaCl2, 2 K2ATP, pH 7.2. Osmolarity was 300 ± 20 mOsm/L, measured using a vapour pressure osmometer (Model 5520, Wescor Inc). […]
In experiment [9] the test system is T3, α4β3^S408A,S409Aδ receptors.
T3 construct: expressed in transfected cells; host or cells: HEK 293
The experiment can be described thus: Quantification of spontaneous activity (Ispont) in HEK cells, whole-cell patch clamp. Type of experiment: cell-based, mouse. To be noted: for Ispont during staurosporine application: α4β3S408A,S409Aδ, 200 nM staurosporine, individual cells.
From the text: as §1, §2, §3
(In patch-clamp work, channel activity is measured electrically.)

Experiment [10] relates to T4, α4β3^S408D,S409Dδ receptors.
T4 construct: expressed in transfected cells; host or cells: HEK 293
The experiment is described as above. Format: cell-based, mouse. To be noted: for Ispont during staurosporine application: α4β3S408D,S409Dδ, 200 nM staurosporine, individual cells.
From the text: as §1, §2, §3

Experiment [11] relates to T5, α4β3δ GABAARs.
T5 construct: expressed in transfected cells; host or cells: HEK cells (outside-out patches)
The experiment can be described thus: Single-channel recording of spontaneous currents, outside-out patches of HEK cells. Format: cell-based, mouse. Particulars: 100 μM PTX, absence of GABA. The procedure:
To limit ion channel density in individual patches, HEK cells were transfected with 5 ng α4, β3, δ and eGFP cDNAs. Resulting spontaneous single-channel currents were digitised at a sampling rate of 20 kHz and filtered at 5 kHz with a 4-pole Bessel filter (24 dB per octave). A fixed time resolution of 80 μs was used as a preset. Recordings were undertaken using thick-walled borosilicate patch pipettes (6–10 MΩ) filled with a solution containing (mM): 145 CsCl, 2.5 NaCl, 10 HEPES, 1 EGTA, 4 MgATP, pH 7.3. Osmolarity was 300 ± 20 mOsm/L. Cells were perfused with an external solution consisting of (mM): 145 NaCl, 2.5 KCl, 1 CaCl2, 1 MgCl2, 10 HEPES, 10 glucose, pH 7.3. Prior control recordings were obtained using untransfected HEK cells to identify endogenous channel currents.
Channel currents were digitally low pass filtered at 1–2 kHz prior to analysis. […] Channel dwell states were identified using a threshold cursor method. This state transition detection method for open and shut events was used to assemble an idealised record of the digitised data. Open times affected by channel stacking were not included in the analyses and sub-conductance states were also rare and excluded from the analysis.
The analysis of the dwell times for single-channel currents was performed by fitting a mixture of exponential components to the open time distributions. These defined the mean open times and their relative proportions (area of the components) based on using a Levenberg-Marquardt non-linear least-squares routine (WinEDR ver 3.8.7, courtesy of J Dempster, University of Strathclyde).

Setting [12] is: eGFP- and β3-expressing neurons, concanamycin A 0.5 μM.
[13] abbreviates: Gabazine alone, individual cells.
[14] abbreviates: PTX added after Gabazine, individual cells.

T2 sequence (Q9D6F4 36-552): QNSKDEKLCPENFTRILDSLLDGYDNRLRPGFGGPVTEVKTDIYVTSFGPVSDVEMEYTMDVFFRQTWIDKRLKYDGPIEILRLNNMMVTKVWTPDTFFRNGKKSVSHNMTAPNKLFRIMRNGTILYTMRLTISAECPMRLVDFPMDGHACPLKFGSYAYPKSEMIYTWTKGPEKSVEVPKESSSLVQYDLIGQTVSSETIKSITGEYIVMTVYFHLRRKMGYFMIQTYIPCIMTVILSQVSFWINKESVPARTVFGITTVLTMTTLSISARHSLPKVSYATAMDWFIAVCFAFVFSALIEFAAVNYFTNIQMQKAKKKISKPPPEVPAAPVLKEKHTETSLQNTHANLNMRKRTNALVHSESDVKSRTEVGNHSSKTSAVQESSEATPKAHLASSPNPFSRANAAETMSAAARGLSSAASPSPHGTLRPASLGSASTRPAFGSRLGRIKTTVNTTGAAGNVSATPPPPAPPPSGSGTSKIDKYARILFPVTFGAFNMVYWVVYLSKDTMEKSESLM
T2 sequence (P63080 26-473): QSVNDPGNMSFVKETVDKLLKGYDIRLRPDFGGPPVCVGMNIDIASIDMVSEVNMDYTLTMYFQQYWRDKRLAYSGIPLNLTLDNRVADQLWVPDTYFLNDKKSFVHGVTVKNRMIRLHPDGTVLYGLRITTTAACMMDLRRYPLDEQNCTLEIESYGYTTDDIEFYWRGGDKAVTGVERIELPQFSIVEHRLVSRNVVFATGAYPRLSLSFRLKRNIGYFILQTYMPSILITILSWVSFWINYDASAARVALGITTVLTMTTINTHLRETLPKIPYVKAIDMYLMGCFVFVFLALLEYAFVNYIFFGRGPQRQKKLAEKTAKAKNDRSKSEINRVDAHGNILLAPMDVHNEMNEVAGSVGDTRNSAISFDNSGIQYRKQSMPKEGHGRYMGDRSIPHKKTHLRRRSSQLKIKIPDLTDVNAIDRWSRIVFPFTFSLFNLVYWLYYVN
T2 sequence (P18506 25-449): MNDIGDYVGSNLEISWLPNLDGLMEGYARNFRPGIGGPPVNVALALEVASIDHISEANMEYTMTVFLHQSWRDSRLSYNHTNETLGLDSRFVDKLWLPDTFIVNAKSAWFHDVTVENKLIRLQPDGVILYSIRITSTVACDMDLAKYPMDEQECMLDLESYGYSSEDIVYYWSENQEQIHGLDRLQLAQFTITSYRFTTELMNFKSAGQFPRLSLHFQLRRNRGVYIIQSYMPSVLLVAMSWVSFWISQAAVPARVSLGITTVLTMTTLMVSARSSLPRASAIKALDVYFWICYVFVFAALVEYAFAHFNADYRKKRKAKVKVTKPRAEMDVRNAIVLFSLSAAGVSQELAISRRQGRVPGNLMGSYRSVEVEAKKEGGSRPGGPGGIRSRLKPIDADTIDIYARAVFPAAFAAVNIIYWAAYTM

For the molecule `O=C(Nc1c(-c2cccs2)nc2ccccn12)c1ccc(Cl)cc1` [DS2], the “GABA + DS2 current, Supp. Fig. 2b” value in [1] was 0.04 and 0.14 and 0.11 and 0.09 and 0.26; in [2] (GABA with DS2, individual cells), 1.82 and 1.25 and 0.43 and 1.45 and 3.44. Further, the “Effect on 0.3 μM GABA responses” value in [2] (DS2 5 μM) was “potentiated”.
Consider `CN([C@@H](Cc1ccc(OS(=O)(=O)c2cccc3cnccc23)cc1)C(=O)N1CCN(c2ccccc2)CC1)S(=O)(=O)c1cccc2cnccc12` [KN-62], for which the “spontaneous activity, Supp. Fig. 3e” value in experiment [3] (KN-62 treated (vs control), individual cells) was 9.722 and 13.6922 and 18.602 and 3.467 and 9.093 and 9.783 and 14.5969 and 3.449 and 5.659. In experiment [3] (α4β3δ, KN-62 3 µM internal), the “Effect on Ispont of internally applied CaMKII inhibitor” value was “no effect”.
For the molecule `CN(C)CCCn1cc(C2=C(c3c[nH]c4ccccc34)C(=O)NC2=O)c2ccccc21` [bisindolylmaleimide-I], in [3] (α4β3δ, Bis-I 200 nM internal, 2 min dialysis (Fig. 5e)), the “Ispont with PKC inhibitor in the patch electrode solution” value is given as “significantly reduced”.
`C/C=C/[C@H]1O[C@@](O)([C@@H](C)[C@H](O)[C@H](C)[C@H]2OC(=O)/C(OC)=C/C(C)=C/[C@@H](C)[C@@H](O)[C@@H](CC)[C@@H](O)[C@H](C)C/C(C)=C/C=C/[C@@H]2OC)C[C@@H](O[C@H]2C[C@@H](O)[C@H](OC(N)=O)[C@@H](C)O2)[C@@H]1C` [concanamycin A]: the “spontaneous/tonic current, Supp. Fig. 4e” value in experiment [4] (eGFP neurons) is 1.043 and 0.1205 and 0.1429 and 0.1839 and 0.303 and 0.1613 and 0.3626 and 0.3579. Also, in experiment [4] (setting [12]), the “Effect on IPSCs” value is listed as “abolished” and the “Effect on PTX-sensitive spontaneous currents” value is “without affecting”. The “spontaneous/tonic current, Supp. Fig. 4e” value in experiment [4] (β3 neurons) is 1.595 and 1.13 and 1.667 and 1.221 and 1.725 and 1.692.
For `COc1ccc(-c2ccc(=N)n(CCCC(=O)O)n2)cc1` [gabazine], the “Effect on spontaneous holding current” value in experiment [5] is listed as “behaved as an inverse agonist”; in experiment [8] (β3 alone, gabazine 1 µM), “but not with β3 alone”. The figures for the “Effect on holding current” value in [4] (eGFP-transfected neurons) and in experiment [4] (β3-transfected neurons) were “small agonist effect” and “partial antagonism”, respectively. The “Change in holding current” value in experiment [6] (gabazine 20 µM) is on record as “small increments in holding current”. Also, in experiment [6] (setting [13]), the “tonic current change with Gabazine, Fig. 10a” value was -0.04645 and -0.07728 and -0.0199 and 0.08319 and 0 and -0.01133 and -0.01699 and -0.02885 and -0.01144. Further, the “tonic current change with Gabazine, Fig. 10b” value in experiment [7] (setting [13]) was 0.2002 and 0.032 and 0.025 and 0.02996 and 0.07463 and 0.08562 and 0.04525 and 0.03574 and -0.03067 and 0.01818. For the same molecule, in experiment [7] (dLGN thalamic relay neurons, gabazine 20 µM), the “Effect on tonic current” value is “part-inhibited”.
With `CCCC(C)C1(CC)C(=O)NC(=O)NC1=O` (stereo not drawn) [pentobarbital], the “Whole-cell current evoked by pentobarbital” value in experiment [8] (β3, 100 µM pentobarbital, n = 11) was 220 ± 94 pA.
In the case of `CN[C@@H]1C[C@H]2O[C@@](C)([C@@H]1OC)n1c3ccccc3c3c4c(c5c6ccccc6n2c5c31)C(=O)NC4` [staurosporine], the “Ispont during staurosporine application” value in experiment [3] (α4β3δ, time 1 min, individual cells) is “decreased significantly and 13.2% and 6.4% and 6.3%”; in [3] (α4β3δ, time 10 min, individual cells) it was 9.3% and 12.3% and 3.2% and 4.6%; in experiment [3] (α4β3δ, time 20 min, individual cells), 7.5% and 8% and 2.3% and 3.8%; in experiment [9] (time 1 min), 7.3% and 8.9% and 6.5% and 29.4%; in experiment [9] (time 10 min) it was 5.4% and 6.9% and 9.5% and 5.6% and 26.6%; in experiment [9] (time 20 min), 5.7% and 5.8% and 7.2% and 5%. For the same molecule, the “Ispont during staurosporine application” value in experiment [10] (time 1 min) is 12.5% and 12.6%; in [10] (time 10 min), 11.9% and 9.4% and 7.9%; in experiment [10] (time 20 min), 8.8% and 8.7% and 7.1%. In addition, the “Effect on Ispont over 20 min compared to control” value in experiment [9] (phospho-null α4β3^S408A,S409Aδ, staurosporine 200 nM) is given as “no effect”; in [10] (phosphomimetic α4β3^S408D,S409Dδ, staurosporine 200 nM), “no effect”.
For “PKA inhibitor peptide 14–22: selective PKA inhibitor peptide (GRTGRRNAI; UniProt P61925 15-23, looked up, fragment)”, the “Ispont with PKA inhibitor in the patch electrode solution” value in experiment [3] (α4β3δ, PKI 1 μM internal, 2 min dialysis (Fig. 5d)) was “significantly reduced”.
With picrotoxin [PTX], in experiment [11], the “Effect on spontaneous single-channel currents” value is given as “blocked”. In experiment [6] (PTX 100 μM after gabazine), the “Change in holding current” value is recorded as “large reduction in holding current”. For the same molecule, in [6] (setting [14]), the “tonic current change with +PTX, Fig. 10a” value was 0.1792 and 0.4018 and 0.1492 and 0.2163 and 0.07528 and 0.1359 and 0.2209 and 0.2596 and 0.5835. The “tonic current change with +PTX, Fig. 10b” value in experiment [7] (setting [14]) is 0.2529 and 0.032 and 0.04 and 0.1019 and 0.1492 and 0.1027 and 0.03878 and 0.06433 and 0.1595 and 0.03636. In [7] (dLGN thalamic relay neurons, PTX 100 μM after gabazine), the “Effect on residual tonic current” value is “blocked”.
